Results from patent US10004727B2, “Composition for preventing, alleviating or treating metabolic diseases, containing amodiaquine as active ingredient” (POSTECH ACADEMY—INDUSTRY FOUNDATION, priority 2015, dated 2018).
Each block holds one compound with its values, some of them ahead of it.

What was measured:
[1] = test system: high fat-induced obesity mice; assay: Intraperitoneal insulin tolerance test (IPITT) in high fat-induced obesity mice; type: in vivo, mouse; settings: 0.5 U/kg insulin i.p.; for blood glucose concentration after 2 hours (IPITT): HFD with simultaneous substance, FIG. 7B; for time of lowest blood glucose level (IPITT): substance given after long-term HFD induction, FIG. 7C
Protocol: After 16-hour fasting, 0.5 U/kg of insulin was intraperitoneally administered to each animal in the controls and the experimental group, and a blood glucose concentration was measured every 30 minutes for 2 hours. For measurement of the blood glucose concentration, an IPITT was used.

[2] = biological target: T1, human PPAR-γ-ligand binding domain (LBD) (Homo sapiens, UniProt P37231); assay: GAL4-PPAR-γ-LBD luciferase reporter assay in BE(2)C cells; type: cell-based; settings: various concentrations up to 50 μM, 20 hours, FIGS. 1A and 1B
T1 construct: expressed in transfected cells; host or cells: BE(2)C cells
T1 sequence (P37231 238-503 limits assumed): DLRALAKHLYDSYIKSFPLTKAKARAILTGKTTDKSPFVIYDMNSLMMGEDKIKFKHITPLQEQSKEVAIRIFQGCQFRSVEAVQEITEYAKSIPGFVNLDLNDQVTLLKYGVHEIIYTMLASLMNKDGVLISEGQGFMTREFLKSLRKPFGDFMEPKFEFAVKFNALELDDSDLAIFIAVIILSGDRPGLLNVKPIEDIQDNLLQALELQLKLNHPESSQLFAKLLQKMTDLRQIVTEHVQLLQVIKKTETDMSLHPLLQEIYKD
Protocol: (§1) To examine whether amodiaquine serves as a ligand of PPAR-γ or PPAR-α, three types of vectors were used.
(§2) The activation of luciferase expression was detected 6 hours after BE(2)C cells were transformed with a GAL4-PPAR-γ-LBD plasmid or GAL4-PPAR-α-LBD plasmid, the GAL4-luciferase vector and the β-galactosidase vector, and growing amodiaquine-treated cells for 20 hours in a 5% CO2 incubator.

[3] = test system: KKAy mice; assay: Fasting blood glucose in KKAy mice; type: in vivo, mouse; settings: 18 mg/kg daily oral for 6 weeks, control 132.4 mg/dl
Protocol: (§3) Following one-week acclimation, 5-week-old KKAy mice purchased from Saeronbio Inc. were divided into two groups of 5.
(§4) The first group was set as a negative control by administering PBS, and the second group was treated by daily oral administration of amodiaquine at 18 mg/kg for 6 weeks.
(§5) Fasting blood glucose was measured for 6 weeks from whole blood taken from the caudal vein of each mouse 1, 2, 5 and 6 weeks after 12-hour fasting. For blood glucose measurement, a blood glucose strip (Green Cross, Gyeonggi-do, Korea) was used. […] In addition, to identify the blood glucose regulation effect, 2 g/kg of glucose was intraperitoneally injected into the mice of the control and experimental group after 16-hour fasting, and the level of blood glucose was measured every 30 minutes for 2 hours. For measurement of the blood glucose concentration, an intraperitoneal glucose tolerance test (IPGTT) was used.

[4] = test system: C2C12 myotube cells; assay: Glucose uptake ([3H]2-DOG) evaluation test in C2C12 myotube cells; type: cell-based, mouse; settings: C2C12 myotubes, 10 and 30 μM amodiaquine for 24 hours, compared with 50 μM rosiglitazone; FIG. 2
Protocol: Phosphorylation of insulin receptors occurs due to signal transduction by insulin in muscle, adipose or liver cells, and therefore when various proteins located downstream are phosphorylated, glucose uptake increases resulting in reduced blood glucose. A glucose uptake evaluation test was performed to identify whether amodiaquine is effective in diabetes. C2C12 myoblasts, which are muscle cells, were cultured in 10% […]-containing DMEM. When the cell density reached approximately 80 to 90%, the medium was replaced with fresh 2% horse serum-containing DMEM, and cell differentiation of the C2C12 myoblasts to myotubes was induced to make them completely differentiated, followed by carrying out an experiment. […] Washing was repeated three times every twenty minutes. Subsequently, 1 ml of KRP buffer was injected, a solution (0.2 mM, 0.2 μCi) prepared by dissolving unlabeled 2-DOG and [^3H]2-DOG (Amersham Pharmacia) in KRP buffer was added at 37° C. to allow treatment for exactly 10 minutes. The resulting cells were washed with 3 ml of cold phosphate buffered saline (PBS) to stop a glucose uptake reaction, further washed twice with PBS, air-dried for approximately 1 hour, and lyzed with 1 ml of 0.1% SDS by pipetting, and then 300 μl of the lysate was obtained to detect radioactivity using a liquid scintillation counter (Perkin Elmer, USA).

[5] = test system: high fat-induced obesity mouse; assay: 4° C. cold test (thermal production) in high fat-induced obesity mice; type: in vivo; settings: HFD mice, 14 weeks, amodiaquine 20 mg/kg; 4° C. for up to 6 hours; versus high fat obesity-induced mouse; FIG. 6
Protocol: To measure a thermal production capability with respect to mice fed a high fat diet for 14 weeks among the experimental animals designed in Example 5, a 4° C. cold test was performed (Spiegelman B. M. et al., Cell 92: 829-839, 1998). Hereinafter, the measurement method will be described in detail. A body temperature of mice in the high fat-induced obesity mouse groups was measured before being exposed to 4° C. and recorded as a test start temperature, and then the mice were exposed to 4° C. for up to 6 hours, followed by measuring a body temperature. The body temperature was measured using a rectal thermometer for a mouse (testo 925, Germany) A thermal production value indicated a temperature measured every hour.

[6] = test system: KKAy mice; assay: Intraperitoneal glucose tolerance test (IPGTT) in KKAy mice; type: in vivo, mouse; settings: 18 mg/kg daily oral for 6 weeks, 2 g/kg glucose i.p. after 16-hour fasting, control 293.2 mg/dl
Protocol: as §3, §4, §5

[7] = test system: liver of the high fat-induced obesity mouse; assay: Fatty liver histology (hematoxylin-eosin) in high fat-induced obesity mice; type: in vivo; settings: HFD with amodiaquine for 14 weeks; FIG. 8
Protocol: Among the experimental animals designed in Example 5, mice in the high fat-induced obesity mouse group fed a high fat diet for 14 weeks were sacrificed by cervical spine dislocation, fixed on a dissection stand, and subjected to abdominal dissection with a scalpel to extract the liver. The extracted liver tissue was fixed in a 10% formalin solution to prevent contracted deformation. After the fixed tissue was washed with running water after 24 hours, general tissue dehydration, clearing and impregnation were performed using an automatic tissue processor (6460B, Sakura, Japan) for 14 hours, and manufacture of paraffin blocks and cooling were performed using an automated embedding device (Tissue-Tex, Japan). The manufactured paraffin blocks were continuously sliced to a thickness of 4 to 5 μm in a vertical direction of the tissue using a rotary microtome 2040 (Japan), and attached to slides after processing using a water bath and a slide warming table. The thin tissue section was stained with hematoxylin, an excessively-stained part was washed with running tap water, and then the resulting section was dipped in 1% HCl and a 70% A/C solution 3 to 5 times to stain the nuclei blue. […]

[8] = Body weight of high fat-induced obesity mice; type: in vivo, mouse; settings: C57BL/6 mice, amodiaquine 20 mg/kg
Protocol: The mice were divided into groups of 7, freely fed water and diets in a cage, and then acclimated for 1 week before an experiment. […] [table] […] An average body weight was calculated by dividing the sum of weights of 7 mice per group by the number of mice.

[9] = biological target: T2, PPAR-α-LBD (Homo sapiens, UniProt Q07869); assay: GAL4-PPAR-α-LBD luciferase reporter assay in BE(2)C cells; type: cell-based; settings: various concentrations up to 50 μM, 20 hours, FIGS. 1C and 1D
T2 construct: expressed in transfected cells; host or cells: BE(2)C cells
T2 sequence (Q07869 239-466 limits assumed): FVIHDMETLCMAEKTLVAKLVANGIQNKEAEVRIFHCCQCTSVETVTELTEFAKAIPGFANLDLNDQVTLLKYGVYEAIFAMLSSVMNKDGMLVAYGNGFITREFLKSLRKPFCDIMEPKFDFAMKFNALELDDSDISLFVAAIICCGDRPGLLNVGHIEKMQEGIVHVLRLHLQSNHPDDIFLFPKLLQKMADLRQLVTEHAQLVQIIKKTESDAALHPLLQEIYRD
Protocol: as §1, §2

[10] = test system: high fat-induced obesity mice; assay: Oral glucose tolerance test (OGTT) in high fat-induced obesity mice; type: in vivo, mouse; settings: HFD mice with amodiaquine; 2 g/kg glucose oral after 16-hour fasting; HFD control 180.5 mg/dl; FIG. 7A
Protocol: After 16-hour fasting, 2 g/kg of glucose was orally administered to each animal in the controls and experimental group, and a blood glucose concentration was measured every 30 minutes for 2 hours. For measurement of the blood glucose concentration, an OGTT was used.

[11] = test system: KKAy mice; assay: Glycated hemoglobin (HbA1C) content in KKAy mice; type: in vivo, mouse; settings: 18 mg/kg daily oral for 6 weeks, FIG. 4
Protocol: To detect a change in glycated hemoglobin content in mice by amodiaquine, after 1-week acclimation, 5-week-old KKAy mice were purchased from Saeronbio Inc. were divided into two groups of 5. Like in Example 3, the first group of mice were set as a control by administering PBS, and the second group was treated by daily oral administration of amodiaquine at 18 mg/kg for 6 weeks using a 1 ml syringe. To detect an effect of amodiaquine on reducing glycated hemoglobin content, whole blood was taken from the caudal vein of each mouse in the control and experimental group, injected into an easy A1c cartridge, and then assessed using an easy A1c analyzer (Asan Pharmaceutical Co., Ltd., Seoul, Korea). An independent group t-test was performed on the experimental group and the control to identify significance in the test results, and a statistically significant difference was shown (**p<0.005).

- PPAR-γ activity (luciferase expression) [2]: PPAR-γ activity was not shown
Structure (SMILES): Cc1cccc(Nc2cc(Cl)nc(SCC(=O)O)n2)c1C [WY-14,643]
- blood glucose concentration after 2 hours (IPITT) [1]: maintained lower than the fasting blood glucose concentration

Structure (SMILES): CCN(CC)Cc1cc(Nc2ccnc3cc(Cl)ccc23)ccc1O [amodiaquine, 4-[(7-chloroquinolin-4-yl)amino]-2-[(diethylamino)methyl]phenol]
- fasting blood glucose concentration [3]: 100.2 mg/dL
- blood glucose concentration after 2 hours (IPITT) [1]: maintained lower than the fasting blood glucose concentration
- time of lowest blood glucose level (IPITT) [1]: 30 min
- glucose uptake [4]: further increased than that in the rosiglitazone-treated group
- PPAR-γ activity (luciferase expression) [2]: higher concentration-dependent PPAR-γ activity
- body temperature on exposure to 4° C. (thermal production) [5]: less decreased in body temperature
- blood glucose concentration 2 hours after glucose loading (IPGTT) [6]: 207 mg/dL
- liver appearance (fat accumulation, hematoxylin-eosin) [7]: almost the same appearance as that of a normal mouse
- body weight versus high fat-induced obesity mouse (prevention) ([8]; HFD with substance for 14 weeks, FIG. 5A): significantly lower than that of the high fat-induced obesity mouse
- body weight versus high fat-induced obesity mouse (treatment) ([8]; substance for 7 weeks after 15-week HFD induction, rosiglitazone 50 mg/kg, FIG. 5C): significantly lower than that of the high fat-induced obesity mouse
- PPAR-α activity (luciferase expression) [9]: high concentration-dependent PPAR-α activity
- blood glucose concentration 2 hours after glucose loading (OGTT) [10]: 139.1 mg/dL
- production of glycated hemoglobin relative to the control mice [11]: ~69%

- PPAR-γ activity (luciferase expression) [2]: PPAR-γ activity was not shown
- PPAR-α activity (luciferase expression) [9]: did not show the PPAR-α activity
Structure (SMILES): CCN(CC)CCCC(C)Nc1ccnc2cc(Cl)ccc12 (stereo not drawn) [chloroquine, 7-chloro-4-(4-diethylamino-1-methylbutylamino)quinoline]

Structure (SMILES): CN(CCOc1ccc(CC2SC(=O)NC2=O)cc1)c1ccccn1 (stereo not drawn) [rosiglitazone]
- time of lowest blood glucose level (IPITT) [1]: 60 min
